Legend:
Assay type in all cases: cell-based, human
[1] = test system: normal skin fibroblasts (HFF-1); assay: Cytotoxicity MTT assay, normal skin fibroblasts; conditions: 72 h incubation, mean ± SD
Procedure: (§1) The human ATCC tumor cell lines breast adenocarcinoma (MCF7), colorectal carcinoma (HT-29), pancreatic ductal adenocarcinoma (CFPAC-1), hepatocellular carcinoma (HepG2), and normal skin fibroblasts (HFF) derived from ATCC (American Type Culture Collection) were cultured in Dulbecco’s Modified Eagle Medium (DMEM) or Minimum Essential Medium (MEM) supplemented with 10% fetal bovine serum (FBS), 2 mM L-glutamine, 100 U/mL penicillin, and 100 µg/mL streptomycin (Lonza, Basel, Switzerland) in a humidified atmosphere with 5% CO2 at 37 °C. For the experiment, carcinoma cell lines and normal human cell lines were seeded in 96-well microtiter plates at a density of 3000 cells per well and 5000 cells per well, respectively, depending on the doubling time of the specific cell line. The test substances were then added at fivefold, tenfold dilutions (0.01 to 100 µM), freshly prepared in the growth medium on the day of testing, and incubated for a further 72 h. After 72 h of incubation, the growth rate of the cells was determined using the MTT assay according to the manufacturer’s guidelines. […] The IC50 values were calculated from the dose–response curves using linear regression analysis. The experiment was performed in tetraplicates in two individual experiments.
(§2) Newly synthesized compounds were evaluated for their cytotoxic activity in vitro against four human cancer cell lines, including human breast adenocarcinoma (MCF-7), ductal pancreatic adenocarcinoma (CFPAC-1), colorectal carcinoma (HT-29), and hepatocellular carcinoma (HepG2), as well as on non-cancerous skin fibroblasts (HFF-1), to check for non-specific toxicity. Furthermore, 5-Fluorouracil (5-FU) was used as a reference drug. The results are expressed as 50% inhibitory concentration (IC50) values and are listed in Table 2, Table 3, Table 4 and Table 5.

[2] = test system: hepatocellular carcinoma (HepG2) cells; assay: Antiproliferative MTT assay, HepG2; conditions: for IC50: Homo sapiens, HepG2, 72 h, 72 h incubation, MTT, mean ± SD; for SI (HepG2): SI = [IC50 HFF]/[IC50 HepG2]
Procedure: as §1, §2

[3] = test system: pancreatic ductal adenocarcinoma (CFPAC-1) cells; assay: Antiproliferative MTT assay, CFPAC-1; conditions: for IC50: 72 h incubation, MTT, mean ± SD; for SI (CFPAC-1): SI = [IC50 HFF]/[IC50 CFPAC-1]
Procedure: as §1, §2

[4] = test system: breast adenocarcinoma (MCF7) cells; assay: Antiproliferative MTT assay, MCF-7; conditions: for IC50: Homo sapiens, MCF7, 72 h incubation, MTT, mean ± SD
Procedure: as §1, §2

[5] = test system: colorectal carcinoma (HT-29) cells; assay: Antiproliferative MTT assay, HT-29; conditions: for IC50: 72 h incubation, MTT, mean ± SD; for SI (HT-29): SI = [IC50 HFF]/[IC50 HT-29]
Procedure: as §1, §2

Row | Structure (SMILES) | IC50 [1] | IC50 ([1]; Homo sapiens, HFF-1, 72 h) | IC50 [2] | SI (HepG2) [2] | IC50 [3] | IC50 ([3]; Homo sapiens, CFPAC-1, 72 h) | IC50 [4] | SI (MCF-7) ([4]; SI = [IC50 HFF]/[IC50 MCF-7]) | IC50 [5] | IC50 ([5]; Homo sapiens, HT-29, 72 h) | SI (HT-29) [5] | SI (CFPAC-1) [3]
1 | O=c1[nH]cc(F)c(=O)[nH]1 [Compound 5-FU, 5-Fluorouracil, reference compound] | 0.9 µM | 0.94 µM | 9 ± 1.3 µM | 0.1 | 0.1 ± 0.1 µM | 0.14 ± 0.1 µM | 1 ± 0.8 µM | 0.9 | 0.2 µM | 0.23 µM | 4.5 | 
2 | OCC(c1ccc(F)cc1)n1cc(Cn2ccc3ccccc32)nn1 (centres unmarked) [Compound 27a, 1-((1-(2-Hydroxy-1-(4-fluorophenyl)ethyl)-1H-1,2,3-triazol-4-yl)methyl)-1H-indole] |  | 42 ± 10.5 µM | 49 ± 2.5 µM |  |  | 68 ± 12.7 µM | 51 ± 6.7 µM |  |  | 47 ± 16.9 µM |  | 0.6
3 | OC(Cn1cc(Cn2ccc3ccccc32)nn1)c1ccc(F)cc1 (centres unmarked) [Compound 27b, 1-((1-(2-Hydroxy-2-(4-fluorophenyl)ethyl)-1H-1,2,3-triazol-4-yl)methyl)-1H-indole] |  | > 100 µM | > 100 µM |  |  | > 100 µM | > 100 µM |  |  | > 100 µM |  | 
4 | OCC(c1ccc(Cl)cc1)n1cc(Cn2ccc3ccccc32)nn1 (centres unmarked) [Compound 28a, 1-((1-(2-Hydroxy-1-(4-chlorophenyl)ethyl)-1H-1,2,3-triazol-4-yl)methyl)-1H-indole] |  | 42 ± 4.6 µM | 32 ± 0.2 µM |  |  | 30 ± 0.6 µM | 32 µM |  |  | 31 ± 0.9 µM |  | 1.4
5 | OC(Cn1cc(Cn2ccc3ccccc32)nn1)c1ccc(Cl)cc1 (centres unmarked) [Compound 28b, 1-((1-(2-Hydroxy-2-(4-chlorophenyl)ethyl)-1H-1,2,3-triazol-4-yl)methyl)-1H-indol] |  | > 100 µM | 66 ± 2.7 µM |  |  | 35 ± 19.8 µM | 35 ± 16.2 µM |  |  | 46 ± 18.4 µM |  | >2.9
6 | OCC(c1ccc(C(F)(F)F)cc1)n1cc(Cn2ccc3ccccc32)nn1 (centres unmarked) [Compound 30a, 1-((1-(2-Hydroxy-1-(4-(trifluoromethyl)phenyl)ethyl)-1H-1,2,3-triazol-4-yl)methyl)-1H-indole] |  | 34 ± 1.6 µM | 32 ± 3.6 µM |  |  | 9 ± 3.3 µM | 21 ± 1.6 µM |  |  | 28 ± 1.9 µM |  | 3.7
7 | OC(Cn1cc(Cn2ccc3ccccc32)nn1)c1ccc(C(F)(F)F)cc1 (centres unmarked) [Compound 30b, 1-((1-(2-Hydroxy-2-(4-(trifluoromethyl)phenyl)ethyl)-1H-1,2,3-triazol-4-yl)methyl)-1H-indol] |  | 18 ± 0.6 µM | 65 ± 2.4 µM |  |  | 27 ± 0.7 µM | 22 ± 3.4 µM |  |  | 51 ± 15.3 µM |  | 0.7
8 | OCC(c1ccc(F)cc1)n1cc(Cn2cnc3ccccc32)nn1 (centres unmarked) [Compound 32a, 1-((1-(2-Hydroxy-1-(4-fluorophenyl)ethyl)-1H-1,2,3-triazol-4-yl)methyl)-1H-benzimidazole] |  | > 100 µM | 74 ± 0.6 µM |  |  | > 100 µM | 98 ± 2.8 µM |  |  | > 100 µM |  | 
9 | OC(Cn1cc(Cn2cnc3ccccc32)nn1)c1ccc(F)cc1 (centres unmarked) [Compound 32b, 1-((1-(2-Hydroxy-2-(4-fluorphenyl)ethyl)-1H-1,2,3-triazol-4-yl)methyl)-1H-benzimidazole] |  | > 100 µM | > 100 µM |  |  | > 100 µM | > 100 µM |  |  | > 100 µM |  | 
10 | OCC(c1ccc(Cl)cc1)n1cc(Cn2cnc3ccccc32)nn1 (centres unmarked) [Compound 33a, 1-((1-(2-Hydroxy-1-(4-chlorophenyl)ethyl)-1H-1,2,3-triazol-4-yl)methyl)-1H-benzimidazole] |  | > 100 µM | 50 ± 12.8 µM |  |  | 34 ± 2.3 µM | 40 ± 1.8 µM |  |  | 63 ± 9.8 µM |  | >2.9
11 | OC(Cn1cc(Cn2cnc3ccccc32)nn1)c1ccc(Cl)cc1 (centres unmarked) [Compound 33b, 1-((1-(2-Hydroxy-2-(4-chlorophenyl)ethyl)-1H-1,2,3-triazol-4-yl)methyl)-1H-benzimidazole] |  | 64 ± 6.17 µM | > 100 µM |  |  | 69 ± 12.1 µM | 70 ± 20.5 µM |  |  | > 100 µM |  | 0.9
12 | OCC(c1ccc(C(F)(F)F)cc1)n1cc(Cn2cnc3ccccc32)nn1 (centres unmarked) [Compound 35a, 1-((1-(2-Hydroxy-1-(4-(trifluoromethyl)phenyl)ethyl)-1H-1,2,3-triazol-4-yl)methyl)-1H-benzimidazole] |  | > 100 µM | 59 ± 4.6 µM |  |  | 27 ± 0.7 µM | 30 ± 0.9 µM |  |  | 61 ± 0.7 µM |  | >3.7
13 | OC(Cn1cc(Cn2cnc3ccccc32)nn1)c1ccc(C(F)(F)F)cc1 (centres unmarked) [Compound 35b, 1-((1-(2-Hydroxy-2-(4-(trifluoromethyl)phenyl)ethyl)-1H-1,2,3-triazol-4-yl)methyl)-1H-benzimidazole] |  | 22 ± 18.1 µM | 67 ± 3.5 µM |  |  | 36 ± 1.3 µM | 31 ± 13.7 µM |  |  | 67 ± 2.9 µM |  | 0.6
14 | OCC(c1ccccc1)n1cc(Cn2cnc3c(Cl)ncnc32)nn1 (centres unmarked) [Compound 36a, 6-Chloro-9-((1-(2-hydroxy-1-phenylethyl)-1H-1,2,3-triazol-4-yl)methyl)-9H-purine] |  | > 100 µM | 55 ± 2.4 µM | >1.8 |  | 60 ± 0.9 µM | 53 ± 5.5 µM |  |  | 54 ± 7.4 µM | >1.9 | 
15 | OC(Cn1cc(Cn2cnc3c(Cl)ncnc32)nn1)c1ccccc1 (centres unmarked) [Compound 36b, 6-Chloro-9-((1-(2-hydroxy-2-phenylethyl)-1H-1,2,3-triazol-4-yl)methyl)-9H-purine] |  | 80 ± 14 µM | 41 ± 10.6 µM | 1.9 |  | 65 ± 18.9 µM | 69 ± 10.6 µM |  |  | 61 ± 2.4 µM | 1.3 | 
16 | OCC(c1ccc(F)cc1)n1cc(Cn2cnc3c(Cl)ncnc32)nn1 (centres unmarked) [Compound 37a, 6-Chloro-9-((1-(2-hydroxy-1-(4-fluorophenyl)ethyl)-1H-1,2,3-triazol-4-yl)methyl)-9H-purine] |  | 64 ± 6.3 µM | 37 ± 12.9 µM | 1.7 |  | 50 ± 12.4 µM | 38 ± 15.7 µM |  |  | 41 ± 2.3 µM | 1.6 | 
17 | OC(Cn1cc(Cn2cnc3c(Cl)ncnc32)nn1)c1ccc(F)cc1 (centres unmarked) [Compound 37b, 6-Chloro-9-((1-(2-hydroxy-2-(4-fluorophenyl)ethyl)-1H-1,2,3-triazol-4-yl)methyl)-9H-purine] |  | 59 ± 9.2 µM | 54 ± 6 µM | 1.1 |  | 56 ± 5.5 µM | 49 ± 9.9 µM |  |  | 46 ± 9.9 µM | 1.3 | 
18 | OCC(c1ccc(Cl)cc1)n1cc(Cn2cnc3c(Cl)ncnc32)nn1 (centres unmarked) [Compound 38a, 6-Chloro-9-((1-(2-hydroxy-1-(4-chlorophenyl)ethyl)-1H-1,2,3-triazol-4-yl)methyl)-9H-purine] |  | 41 ± 16.3 µM | 34 ± 4.2 µM | 1.2 |  | 48 ± 4.9 µM | 24 ± 8.8 µM |  |  | 33 ± 6.06 µM | 1.2 | 
19 | OC(Cn1cc(Cn2cnc3c(Cl)ncnc32)nn1)c1ccc(Cl)cc1 (centres unmarked) [Compound 38b, 6-Chloro-9-((1-(2-hydroxy-2-(4-chlorophenyl)ethyl)-1H-1,2,3-triazol-4-yl)methyl)-9H-purine] |  | 31 ± 5.3 µM | 49 ± 13.3 µM | 0.6 |  | 36 ± 8.2 µM | 51 ± 8.9 µM |  |  | 56 ± 2.8 µM | 0.6 | 

From PMC11940194, “Synthesis, Antiproliferative Activity, and ADME Profiling of Novel Racemic and Optically Pure Aryl-Substituted Purines and Purine Bioisosteres” (Biomolecules, 2025)
